The target in data set [1] is Vascular endothelial growth factor receptor 2 (Homo sapiens, UniProt P35968). Nature of the data set: Inhibition of recombinant VEGFR2 (unknown origin) incubated for 120 mins by Perkin Elmer electrophoretic mobility shift platform method.
Data set [2] can be described thus: Inhibition of RET G810R (unknown origin). Also on record: species or system Homo sapiens.
The nature of data set [3]: Inhibition of human recombinant RET Y719F using Biotin-EGPWLEEEEEAYGWMDF as substrate by TR-FRET assay. (In general: In TR-FRET formats the signal depends on donor and acceptor labels being close together.)
Data set [4] has as its system NB1. Nature of the data set: cells. The settings on record: Homo sapiens.
The nature of data set [5]: Cytotoxicity against human TT-1 cells expressing RET incubated for 72 hrs by celltitre blue assay. It is filed as functional.
Data set [6] deals with Hs-578T. Nature of the data set: Cytotoxicity against human Hs-578T cells expressing BRAF incubated for 72 hrs by celltitre blue assay. It is filed as functional.
Data set [7] concerns LNCaP. Nature of the data set: Cytotoxicity against human LNCaP cells expressing BRAF incubated for 72 hrs by celltitre blue assay. Format: functional.
The subject of data set [8] is COLO 205. Nature of the data set: Cytotoxicity against human COLO 205 cells expressing BRAF V600E mutant incubated for 72 hrs by celltitre blue assay. Format: functional.
The subject of data set [9] is A-375. Nature of the data set: Cytotoxicity against human A-375 cells expressing BRAF V600E mutant incubated for 72 hrs by celltitre blue assay. It is filed as functional.
The subject of data set [10] is HeLa. Put plainly: Cytotoxicity against human HeLa cells expressing CRAF incubated for 72 hrs by celltitre blue assay. It is filed as functional.
In data set [11] the test system is K562. Put plainly: Cytotoxicity against human K562 cells expressing BCR-ABL incubated for 72 hrs by celltitre blue assay. It is filed as functional.
The nature of data set [12]: Cytotoxicity against HUVEC expressing VEGFR2 incubated for 72 hrs by celltitre blue assay. Format: toxicity, cell-based. The following applies: human.
Data set [13] can be described thus: Cytotoxicity against HUVEC expressing FLT-1 incubated for 72 hrs by celltitre blue assay. It is filed as toxicity, cell-based. The settings on record: human.
For data set [14], the system named is A-431. Nature of the data set: Cytotoxicity against human A-431 cells expressing C-KIT incubated for 72 hrs by celltitre blue assay. Format: functional.
The target in data set [15] is T1, Tyrosine-protein kinase ABL1 (Homo sapiens, UniProt P00519). Put plainly: Binding affinity to ABL (unknown origin) assessed as dissociation constant measured by ambit kinomescan assay.
The target in data set [16] is RAF proto-oncogene serine/threonine-protein kinase (Homo sapiens, UniProt P04049). Put plainly: Inhibition of CRAF (unknown origin) by kinomescan assay.
Data set [17] concerns the target T1, Tyrosine-protein kinase ABL1. Put plainly: Inhibition of ABL (unknown origin) by kinomescan assay.
Data set [18] is described as follows: Inhibition of C-KIT (unknown origin) by kinomescan assay. On the set-up: species or system Homo sapiens.
Data set [19] can be described thus: Inhibition of recombinant RET V804M (unknown origin) incubated for 120 mins by Perkin Elmer electrophoretic mobility shift platform method. Also on record: species or system Homo sapiens. For orientation: A gel shift assay detects complexes by their altered migration in electrophoresis.
Data set [20] can be described thus: Inhibition of RET V804M (unknown origin). Also on record: species or system Homo sapiens.
The nature of data set [21]: Inhibition of p38 (unknown origin). On the set-up: species or system Homo sapiens.
The target in data set [22] is Proto-oncogene tyrosine-protein kinase receptor Ret (Homo sapiens) (UniProt P07949). The settings on record: NIH3T3.

Broadly, the IC50 is the concentration that inhibits the measured activity by half. The term GI50 denotes the concentration at which growth is held to half of that of the control. Read a high GI50 as less potent growth inhibition. As usually defined, the Kd is the free concentration of one partner at which half of the binding sites on the other are occupied at equilibrium, for simple one-to-one binding.

T1 sequence (P00519 whole entry): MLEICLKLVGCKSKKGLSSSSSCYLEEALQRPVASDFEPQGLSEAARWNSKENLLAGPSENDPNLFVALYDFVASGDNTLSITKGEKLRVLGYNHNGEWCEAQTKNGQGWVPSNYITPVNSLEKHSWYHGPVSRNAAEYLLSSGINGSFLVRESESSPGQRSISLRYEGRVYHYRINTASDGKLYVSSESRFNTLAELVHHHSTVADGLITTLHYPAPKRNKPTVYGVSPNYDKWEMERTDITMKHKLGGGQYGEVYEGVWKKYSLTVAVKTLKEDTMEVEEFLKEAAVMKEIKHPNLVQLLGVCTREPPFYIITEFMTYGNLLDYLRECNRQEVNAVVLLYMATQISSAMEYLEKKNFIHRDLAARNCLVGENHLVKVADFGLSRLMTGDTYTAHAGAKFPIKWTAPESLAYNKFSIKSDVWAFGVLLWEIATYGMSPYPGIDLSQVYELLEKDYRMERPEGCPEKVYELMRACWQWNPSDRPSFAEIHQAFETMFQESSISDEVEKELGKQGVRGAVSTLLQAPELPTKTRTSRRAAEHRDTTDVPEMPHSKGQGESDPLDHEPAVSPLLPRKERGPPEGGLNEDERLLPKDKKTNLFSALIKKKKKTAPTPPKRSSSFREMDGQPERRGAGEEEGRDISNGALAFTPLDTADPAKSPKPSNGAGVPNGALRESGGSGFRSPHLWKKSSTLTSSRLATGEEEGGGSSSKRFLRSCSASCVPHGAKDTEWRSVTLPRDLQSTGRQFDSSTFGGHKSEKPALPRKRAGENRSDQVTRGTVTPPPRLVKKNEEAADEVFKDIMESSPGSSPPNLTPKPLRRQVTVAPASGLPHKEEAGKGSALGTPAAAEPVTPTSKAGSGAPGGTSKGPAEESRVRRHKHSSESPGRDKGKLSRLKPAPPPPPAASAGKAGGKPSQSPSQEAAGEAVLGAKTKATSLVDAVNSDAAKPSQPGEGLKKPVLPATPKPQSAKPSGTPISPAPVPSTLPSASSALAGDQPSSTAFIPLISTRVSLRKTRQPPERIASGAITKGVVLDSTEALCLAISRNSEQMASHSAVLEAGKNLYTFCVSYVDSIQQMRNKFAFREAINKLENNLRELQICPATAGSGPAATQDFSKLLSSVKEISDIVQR
Sequence of Proto-oncogene tyrosine-protein kinase receptor Ret (Homo sapiens) (P07949 whole entry): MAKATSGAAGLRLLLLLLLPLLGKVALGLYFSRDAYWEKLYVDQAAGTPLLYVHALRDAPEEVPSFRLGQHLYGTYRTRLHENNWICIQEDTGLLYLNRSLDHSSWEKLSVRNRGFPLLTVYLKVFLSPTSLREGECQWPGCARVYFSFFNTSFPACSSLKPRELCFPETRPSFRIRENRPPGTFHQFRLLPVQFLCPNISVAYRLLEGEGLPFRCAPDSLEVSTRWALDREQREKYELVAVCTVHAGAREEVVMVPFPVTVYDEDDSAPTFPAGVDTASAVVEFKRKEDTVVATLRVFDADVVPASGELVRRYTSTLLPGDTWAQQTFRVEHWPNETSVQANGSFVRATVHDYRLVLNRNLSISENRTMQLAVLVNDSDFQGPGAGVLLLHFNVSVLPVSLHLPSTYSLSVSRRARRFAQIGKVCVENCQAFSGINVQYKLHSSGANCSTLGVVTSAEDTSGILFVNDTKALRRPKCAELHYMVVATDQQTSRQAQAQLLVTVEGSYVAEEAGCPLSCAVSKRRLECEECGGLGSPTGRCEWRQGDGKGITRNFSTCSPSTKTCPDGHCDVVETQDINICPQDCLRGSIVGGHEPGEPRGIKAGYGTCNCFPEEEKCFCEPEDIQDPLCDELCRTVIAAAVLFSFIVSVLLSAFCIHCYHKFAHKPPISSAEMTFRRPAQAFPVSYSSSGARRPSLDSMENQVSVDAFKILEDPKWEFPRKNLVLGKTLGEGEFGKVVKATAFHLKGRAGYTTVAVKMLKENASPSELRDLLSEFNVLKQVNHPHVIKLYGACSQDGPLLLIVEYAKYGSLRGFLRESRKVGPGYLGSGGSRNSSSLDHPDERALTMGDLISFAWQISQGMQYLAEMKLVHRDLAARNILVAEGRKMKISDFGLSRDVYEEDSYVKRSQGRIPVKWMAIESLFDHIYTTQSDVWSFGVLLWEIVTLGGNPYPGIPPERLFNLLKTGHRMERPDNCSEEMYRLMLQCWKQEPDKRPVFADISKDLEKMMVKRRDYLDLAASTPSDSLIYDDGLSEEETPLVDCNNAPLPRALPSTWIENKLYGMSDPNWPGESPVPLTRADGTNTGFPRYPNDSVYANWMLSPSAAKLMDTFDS
Sequence of Vascular endothelial growth factor receptor 2 (P35968 whole entry): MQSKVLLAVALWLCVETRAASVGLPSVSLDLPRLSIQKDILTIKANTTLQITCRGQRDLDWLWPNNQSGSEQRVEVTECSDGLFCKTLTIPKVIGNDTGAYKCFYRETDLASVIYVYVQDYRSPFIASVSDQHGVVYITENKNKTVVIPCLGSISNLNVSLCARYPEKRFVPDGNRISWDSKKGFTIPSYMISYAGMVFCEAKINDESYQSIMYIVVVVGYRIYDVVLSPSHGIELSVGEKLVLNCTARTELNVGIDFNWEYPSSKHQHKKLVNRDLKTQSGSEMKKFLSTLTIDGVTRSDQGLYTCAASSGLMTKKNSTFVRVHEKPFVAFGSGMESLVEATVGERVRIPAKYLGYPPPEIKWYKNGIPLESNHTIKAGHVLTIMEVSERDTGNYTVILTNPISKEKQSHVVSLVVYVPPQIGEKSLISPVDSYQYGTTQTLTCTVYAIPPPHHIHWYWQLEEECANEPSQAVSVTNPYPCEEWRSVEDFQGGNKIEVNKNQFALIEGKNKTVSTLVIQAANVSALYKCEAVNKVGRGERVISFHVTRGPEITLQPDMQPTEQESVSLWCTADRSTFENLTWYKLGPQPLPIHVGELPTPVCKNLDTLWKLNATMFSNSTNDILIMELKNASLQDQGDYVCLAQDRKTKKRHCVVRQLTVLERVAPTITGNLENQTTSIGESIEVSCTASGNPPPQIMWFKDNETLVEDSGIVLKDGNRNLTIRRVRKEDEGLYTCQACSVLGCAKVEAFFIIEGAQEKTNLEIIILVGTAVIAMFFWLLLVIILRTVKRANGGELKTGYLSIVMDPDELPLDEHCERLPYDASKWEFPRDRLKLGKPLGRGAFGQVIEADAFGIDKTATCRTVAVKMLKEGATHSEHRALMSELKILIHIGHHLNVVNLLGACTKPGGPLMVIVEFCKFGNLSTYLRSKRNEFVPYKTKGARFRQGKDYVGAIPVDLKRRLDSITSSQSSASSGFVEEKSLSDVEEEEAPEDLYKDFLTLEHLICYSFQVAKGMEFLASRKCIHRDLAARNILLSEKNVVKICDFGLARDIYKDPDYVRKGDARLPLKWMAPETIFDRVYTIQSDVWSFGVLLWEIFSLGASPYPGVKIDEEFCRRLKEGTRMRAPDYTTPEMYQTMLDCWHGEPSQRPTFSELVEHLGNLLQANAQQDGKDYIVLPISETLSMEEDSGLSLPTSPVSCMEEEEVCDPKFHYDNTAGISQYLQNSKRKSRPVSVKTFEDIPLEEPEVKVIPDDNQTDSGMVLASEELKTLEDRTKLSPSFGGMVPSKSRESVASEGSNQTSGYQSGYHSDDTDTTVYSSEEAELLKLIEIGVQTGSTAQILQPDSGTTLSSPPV
Sequence of RAF proto-oncogene serine/threonine-protein kinase (P04049 whole entry): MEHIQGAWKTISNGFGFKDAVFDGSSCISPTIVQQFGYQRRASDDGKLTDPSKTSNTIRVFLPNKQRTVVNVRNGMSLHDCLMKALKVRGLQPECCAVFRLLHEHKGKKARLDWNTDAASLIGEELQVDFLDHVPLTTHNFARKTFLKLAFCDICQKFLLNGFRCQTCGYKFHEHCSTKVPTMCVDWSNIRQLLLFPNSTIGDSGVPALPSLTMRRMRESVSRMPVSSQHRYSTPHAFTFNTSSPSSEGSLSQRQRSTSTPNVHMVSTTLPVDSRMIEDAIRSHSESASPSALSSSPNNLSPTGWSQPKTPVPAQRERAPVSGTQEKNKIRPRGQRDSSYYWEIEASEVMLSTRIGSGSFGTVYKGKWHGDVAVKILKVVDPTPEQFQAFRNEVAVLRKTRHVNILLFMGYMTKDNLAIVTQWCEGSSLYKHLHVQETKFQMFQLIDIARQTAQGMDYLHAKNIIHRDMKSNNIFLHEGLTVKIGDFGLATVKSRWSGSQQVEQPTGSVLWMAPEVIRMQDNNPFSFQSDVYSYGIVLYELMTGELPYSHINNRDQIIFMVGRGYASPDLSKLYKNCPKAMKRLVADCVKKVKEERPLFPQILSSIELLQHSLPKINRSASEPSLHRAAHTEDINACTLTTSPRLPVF

`COC1(C(=O)N[C@@H](C)c2ccc(-n3cc(F)cn3)nc2)CCC(c2nc(C)cc(Nc3cc(C)[nH]n3)n2)CC1` (some centres undefined): the 50% inhibitory concentration (IC50) was 35 nM in data set [1] and over 500 nM in [2].
For the compound `CCc1cc2c(cc1N1CCC(N3CCOCC3)CC1)C(C)(C)c1[nH]c3cc(C#N)ccc3c1C2=O` [ALECTINIB], the IC50 in data set [3] amounted to 14 nM; in data set [4], 4.5 nM.
Regarding `COc1cc2ncnc(Oc3cccc(NC(=O)Nc4cc(C(C)(C)C(F)(F)F)on4)c3)c2cc1OC` [CEP-32496], the concentration for 50% growth inhibition (GI50) in data set [5] was 21 nM; in data set [6] it was 2740 nM; in [7], 6630 nM; in [8] it was 60 nM; in data set [9], 84 nM; in [10], at least 3000 nM. For the same compound, the 50% growth inhibitory concentration (GI50) in data set [11] was determined as 70 nM; in data set [14] it was 1000 nM. Moreover, the values for the 50% growth inhibitory concentration (GI50) at 72 h in [12] and in [13] were at least 700 nM and at least 1000 nM, respectively. Also, the dissociation constant Kd in data set [15] was 2.8 nM. The concentration for half-maximal inhibition (IC50) in data set [16] amounted to 146 nM; in data set [17] it was 6 nM; in data set [18], 1 nM.
Compound `C[C@H]1CNC(=O)c2cnn3cc4c(nc23)N(Cc2cc(F)cnc2O1)[C@@H]1CCC[C@@H]1O4` [ENBEZOTINIB] had an IC50 in [2] of 17 nM.
Take `COc1ccc(CN2C3CC2CN(c2ccc(-c4cc(OCC(C)(C)O)cn5ncc(C#N)c45)cn2)C3)cn1` [SELPERCATINIB]: the concentration for half-maximal inhibition (IC50) is 0.8 nM in [19] and over 500 nM in data set [2].
On to `CNC(=O)c1cc(Oc2ccc(NC(=O)Nc3ccc(Cl)c(C(F)(F)F)c3)cc2)ccn1` [SORAFENIB], for which the IC50 in data set [20] worked out at 7.9 nM; in data set [21], 38 nM. For the same compound, in data set [22], it took 47 nM to inhibit growth by half (GI50).

The values are drawn from ChEMBL document CHEMBL5150004, “Targeting Rearranged during Transfection in Cancer: A Perspective on Small-Molecule Inhibitors and Their Clinical Development” (J Med Chem, 2021).
